{"source": "patent US11304926B2", "about": "“Application of transient receptor potential cation channel TRPV3 in developing drug for preventing or treating psoriasis” (CHINA PHARMACEUTICAL UNIVERSITY, priority 2019, dated 2022)", "key": {"[1]": {"system": "back skins of C57BL/6 mice", "assay": "PASI score of back skin of mice after continuous application of 5% imiquimod ointment (model induction)", "assay_type": "in vivo, mouse", "conditions": "62.5 mg 5% imiquimod ointment on back skin, mean ± SD", "excerpt": "(§1) 16 C57BL/6 mice, with half male and half female were purchased from the Experimental Animal Center of Nanjing Medical University, wherein weights of the mice ranged from 18 g to 20 g. Back hair of the mice was shaved off, and then the mice were randomly divided into 2 groups (8 mice in each group) according to male and female genders. Before experiment, the mice were placed in a quiet environment kept away from strong light for 3 days to adapt to the environment, a ratio of an illuminating time to a dark time was 1:1, a room temperature was controlled at 25° C., a humidity was 55%, and the mice could eat and drink freely. 62.5 mg of 5% (0.1 g:2 g) imiquimod ointment (Zhuhai United Laboratories Co., Ltd.) was continuously applied to back skins of the mice for 6 days to induce a psoriasis-like lesion, while the same dose of vaseline ointment was given to the control group. The back skins of the mice were photographed and recorded on the 1st, 3rd and 5th days of modeling and skin appearances on the 5th day of modeling were shown in FIG. 2A.\n(§2) The clinical symptom of the mouse psoriasis model was evaluated by a PASI scoring standard from three indicators of erythema, scale and infiltration thickening. The scores ranged from 0 point to 4 points, and a total score was obtained by adding scores of the three indicators. The PASI scoring standard was as follows: 0 point referred to no symptom; 1 point referred to a mild degree; 2 points referred to a moderate degree; 3 points referred to a severe degree; and 4 points referred to an extremely severe degree. The PASI evaluation was conducted daily before the IMQ ointment was applied. It should be noted that measurement data was represented by mean±standard deviation (mean±SD), and was detected by One-Way ANOVA, wherein in the analysis results, ** represented that P<0.01, which was relative to the vaseline group."}, "[2]": {"system": "mouse psoriasis model induced by 5% IMQ", "assay": "PASI score of mouse psoriasis model induced by imiquimod under drug intervention", "assay_type": "in vivo", "conditions": "0.1% dexamethasone s.c. 100 μL twice a day + imiquimod, n = 8, mean ± SD", "excerpt": "as §1, with “group.” for “group. The back skins of the mice were photographed and recorded on the 1st, 3rd and 5th days of modeling and skin appearances on the 5th day of modeling were shown in FIG. 2A.”\nas §2, with “applied.” for “applied. It should be noted that measurement data was represented by mean±standard deviation (mean±SD), and was detected by One-Way ANOVA, wherein in the analysis results, ** represented that P<0.01, which was relative to the vaseline group.”\nC57BL/6 mice, with half male and half female were purchased from the Experimental Animal Center of Nanjing Medical University, wherein weights of the mice ranged from 18 g to 20 g. The C57BL/6 mice were randomly divided into 4 groups (8 mice in each group). Mouse psoriasis models were established as described in Embodiment 2 (1). […]\nBack skins of the mice were photographed and recorded on the 1st, 3rd and 5th days after modeling."}}, "note": "Marks after values point to notes of the source that are not given here."}
{"smiles": "CC(C)Cn1cnc2c(N)nc3ccccc3c21", "note": "[Imiquimod, imiquimod]", "values": [{"measurement": "PASI score", "setting": "[1]; day 1", "result": "0.0 ± 0.0"}, {"measurement": "PASI score", "setting": "[1]; day 2", "result": "1.5 ± 0.8"}, {"measurement": "PASI score", "setting": "[1]; day 3", "result": "4.5 ± 2.2**"}, {"measurement": "PASI score", "setting": "[1]; day 4", "result": "6.8 ± 1.7**"}, {"measurement": "PASI score", "setting": "[1]; day 5", "result": "9.8 ± 1.3**"}]}
{"smiles": "C[C@@H]1C[C@H]2[C@@H]3CCC4=CC(=O)C=C[C@]4(C)[C@@]3(F)[C@@H](O)C[C@]2(C)[C@@]1(O)C(=O)CO", "note": "[Dexamethasone, dexamethasone, reference compound]", "values": [{"measurement": "PASI score", "setting": "[2]; day 1", "result": "0.0 ± 0.0"}, {"measurement": "PASI score", "setting": "[2]; day 2", "result": "0.3 ± 0.5"}, {"measurement": "PASI score", "setting": "[2]; day 3", "result": "0.8 ± 0.5"}, {"measurement": "PASI score", "setting": "[2]; day 4", "result": "1.5 ± 1.0"}, {"measurement": "PASI score", "setting": "[2]; day 5", "result": "2.3 ± 0.9"}]}
